One test addresses MCL1/Bim (Homo sapiens (Human), UniProt Q07820). As to the kind of experiment: MCL1/Bim Binding AlphaLISA Assay. The conditions noted are these: recombinant human 6xHis-MCL1 (171-327), biotinylated Bim peptide (51-76). How it is done: MCL1/Bim Binding AlphaLISA Assay.
Inhibition of the MCL1 and Bim interaction was measured in the following AlphaLISA assay.
Recombinant human MCL1 protein (C-terminal 6×His Tagged MCL1 containing residues 171-327) was generated at Gilead Sciences, Inc. (Foster City, Calif.). A biotinylated peptide derived from human Bim (residues 51-76) was purchased from CPC Scientific (Sunnyvale, Calif.). (CPC 834113). AlphaLISA anti-6His- acceptor beads (AL128R), AlphaScreen Streptavidin donor beads (6760002B), and Proxiplate-384 Plus (6008289) were purchased from PerkinElmer.
The AlphaLISA assay was performed in a 384-well Proxiplate in a total volume of […]. The reaction mixture contained 0.0625 nM 6×His-MCL1 (171-327), 0.0625 nM biotinylated-Bim peptide, 10 μg/mL AlphaLISA anti-6×His-AlphaLISA acceptor beads, 40 μg/mL AlphaScreen streptavidin donor beads, and serially diluted test compounds in the binding buffer (20 mM Hepes, pH 7.5 (Teknova H1035); 150 mM NaCl (Promega V4221); 0.002% Brij 35 (Thermo Scientific 20150); 1 mM Dithiothreitol (DTT) Solution (Affymetrix 70726); 0.01% BSA (BioLabs B9000S)). 1,000× test compounds were pre-spotted onto 384-well Proxiplate (Labcyte Echo) by Echo 555 Liquid Handler (Labcyte Inc., San Jose, Calif.) followed by incubation of 5 μL MCL1(171-327) for 1 hour. Then 5 μL Bim (51-76) was added and incubated for 2 hours. Five μL AlphaLISA anti-6His-AlphaLISA acceptor beads were then added for 1 hour followed by addition of 5 μL AlphaScreen streptavidin donor beads for 1 hour. The reaction plates were then read on an Envision multimode reader (PerkinElmer) using AlphaScreen settings. Percent inhibition was calculated as shown below: % Inhibition=100%*(Well−Neg)/(Pos−Neg) Neg: negative control, DMSO Pos: positive control, no MCL1 protein, no biotinylated-Bim peptide

The test system of a further test is SKBR3 cells. As to the kind of experiment: SKBR3 Cell Viability Assay. In kind it is cell-based. The conditions noted are these: CellTiter Glo, read-out: MCL1 CV SKBR3 EC50. How it is done: SKBR3 Cell Viability Assay Materials
SKBR3 Cells (ATCC HTB-30) were obtained from ATCC (Manassas, Va.) and cultured in McCoy 5A's medium (ATCC 30-2007)+10% fetal bovine serum (SH30071.03, HyClone, Pittsburgh, Pa.) plus 1× Penicillin-Streptomycin L-glutamine (Corning 30-009-CI, Corning, N.Y.).
The cell viability assay was conducted in a 384-well tissue culture plate (Grenier 781086, Monroe, N.C.) in a total volume of 70 μL. Test compounds were prepared in 1,000×, serially diluted, and pre-spotted into 384-well tissue culture plate by Echo 555 Liquid Handler (Labcyte Inc., San Jose, Calif.). Seventy μL of 6,000 SKBR3 cells were dispensed into each well of the plate and incubated at 37° C. with 5% CO2 for 72 hours. At the end of incubation, 2× CellTiter Glo (CTG) reagents (1 part buffer with 2 parts substrate) (Promega, Madison, Wis.) were prepared, and the plate and the reagent were equilibrated to room temperature for 30 minutes. CTG reagent was added to each plate by Biomek FX at 20 μL/well with 5 times pipetting and mixing to induce cell lysis. Luminescence was read by Envision multimode reader (PerkinElmer). Percent inhibition was calculated as followed: % Inhibition=100%*(Well−Neg)/(Pos−Neg) Neg, negative control, DMSO Pos, positive control, 10 μM Puromycin
In general terms: ATP-based viability assays read luminescence as a measure of living cells.

[1] abbreviates: Homo sapiens, SK-BR-3, 72 hours.

A word on the IC50: it is the concentration that inhibits the measured activity by half. In general, EC50 refers to the midpoint of the concentration-response curve.

Like-named read-outs stand apart in the source and are kept apart here.

Sequence of MCL1/Bim (Q07820 171-327): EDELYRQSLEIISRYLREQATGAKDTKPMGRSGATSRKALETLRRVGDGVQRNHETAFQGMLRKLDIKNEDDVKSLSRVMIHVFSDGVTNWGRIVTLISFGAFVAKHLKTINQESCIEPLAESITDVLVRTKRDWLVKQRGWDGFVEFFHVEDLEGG

In the case of `CO[C@@H]1/C=C\C[C@H](C)C[S@@](=O)(Nc2ncnc3nn(C)cc23)=NC(=O)c2ccc3c(c2)N(C[C@@H]2CC[C@H]21)C[C@@]1(CCCc2cc(Cl)ccc21)CO3` [Example 27], the IC50 on MCL1/Bim amounted to 0.103 nM. In addition, the EC50 in the test with SKBR3 cells (setting [1]) stood at 40 nM.

Consider `C[C@H]1C/C=C/[C@H](O)[C@@H]2CC[C@H]2CN2C[C@@]3(CCCc4cc(Cl)ccc43)COc3ccc(cc32)C(=O)N=[S@](=O)(Nc2ncnc3nn(C)cc23)C1` [Example 29], for which, on MCL1/Bim, the IC50 turned out to be 0.038 nM. The EC50 in the test on SKBR3 cells (setting [1]) was determined as 15.3 nM.

With `C[C@H]1C/C=C/[C@H](O)[C@@H]2CC[C@H]2CN2C[C@@]3(CCCc4cc(Cl)ccc43)COc3ccc(cc32)C(=O)N=[S@](=O)(Nc2nc(Cl)nc3nn(C)cc23)C1` [Example 30], the IC50 on MCL1/Bim came to 0.03 nM. Besides, the EC50 in the test on SKBR3 cells (setting [1]) was 930 nM.

Turning to `C[C@H]1C/C=C/[C@H](O)[C@@H]2CC[C@H]2CN2C[C@@]3(CCCc4cc(Cl)ccc43)COc3ccc(cc32)C(=O)N=[S@](=O)(Nc2nc(N)nc3nn(C)cc23)C1` [Example 32], the IC50 on MCL1/Bim was found to be 0.057 nM. Besides, the EC50 with SKBR3 cells (setting [1]) came out at 18.5 nM.

Take `C[C@H]1C/C=C/[C@H](O)[C@@H]2CC[C@H]2CN2C[C@@]3(CCCc4cc(Cl)ccc43)COc3ccc(cc32)C(=O)N=[S@](=O)(Nc2nc(N3CCOCC3)nc3nn(C)cc23)C1` [Example 33]: the IC50 on MCL1/Bim worked out at 0.019 nM. Further, the EC50 with SKBR3 cells (setting [1]) was found to be 30.1 nM.

As to `C[C@@H]1[C@@H](C)C/C=C/[C@H](O)[C@@H]2CC[C@H]2CN2C[C@@]3(CCCc4cc(Cl)ccc43)COc3ccc(cc32)C(=O)N=[S@]1(=O)Nc1ncnc2nn(C)cc12` [Example 34], at MCL1/Bim, the IC50 stood at 0.088 nM. Also, the EC50 in the test with SKBR3 cells (setting [1]) is 25.4 nM.

As for `COc1nn(C)cc1C(=O)N[S@@]1(=O)=NC(=O)c2ccc3c(c2)N(C[C@@H]2CC[C@H]2[C@@H](O)C#CC[C@H](C)C1)C[C@@]1(CCCc2cc(Cl)ccc21)CO3` [Example 36], the IC50 on MCL1/Bim is 0.267 nM. Moreover, the EC50 with SKBR3 cells (72 hours) stood at 1070 nM.

As to `COc1nn(C)cc1C(=O)N[S@@]1(=O)=NC(=O)c2ccc3c(c2)N(C[C@@H]2CC[C@H]2[C@@H](OC)C#CC[C@H](C)C1)C[C@@]1(CCCc2cc(Cl)ccc21)CO3` [Example 37], the IC50 at MCL1/Bim was determined as 0.04 nM. Also, the EC50 with SKBR3 cells (setting [1]) was 57.7 nM.

Consider `COc1nn(C)cc1C(=O)N[S@@]1(=O)=NC(=O)c2ccc3c(c2)N(C[C@@H]2CC[C@H]2[C@H](O)/C=C/C[C@H](C)C1)C[C@@]1(CCCc2cc(Cl)ccc21)CO3` [Example 39], for which the IC50 at MCL1/Bim came out at 0.201 nM. Also, the EC50 in the test with SKBR3 cells (setting [1]) stood at 146 nM.

In the case of `CC[C@@H]1CC/C=C/[C@H](OC)[C@@H]2CC[C@H]2CN2C[C@@]3(CCCc4cc(Cl)ccc43)COc3ccc(cc32)C(=O)N=S1(=O)NC(=O)COC1CCOCC1` (stereo partly shown) [Example 40], on MCL1/Bim, the IC50 was 0.101 nM. Besides, the EC50 with SKBR3 cells (72 hours) was found to be 326 nM.

Regarding `CC[C@@H]1CC/C=C/[C@H](OC)[C@@H]2CC[C@H]2CN2C[C@@]3(CCCc4cc(Cl)ccc43)COc3ccc(cc32)C(=O)/[N+]([O-])=[S@]\1NC(=O)c1cn(C)nc1OC` [Example 41], the IC50 at MCL1/Bim is 0.146 nM. Besides, in the test on SKBR3 cells (72 hours), the EC50 came out at 126 nM.

Take `CC[C@H]1C/C=C/[C@H](OC)[C@@H]2CC[C@H]2CN2C[C@@]3(CCCc4cc(Cl)ccc43)COc3ccc(cc32)C(=O)N=[S@](=O)(NC(=O)NC2CC2)C1` [Example 42]: the IC50 on MCL1/Bim amounted to 0.253 nM. Besides, in the test on SKBR3 cells (72 hours), the EC50 amounted to 233 nM.

`CC[C@H]1C/C=C/[C@H](OC)[C@@H]2CC[C@H]2CN2C[C@@]3(CCCc4cc(Cl)ccc43)COc3ccc(cc32)C(=O)N=[S@@](=O)(NC(=O)c2cnn(C)c2)C1` [Example 43]: the IC50 at MCL1/Bim was 1.67 nM. The EC50 in the test with SKBR3 cells (72 hours) is 3570 nM.

On to `CCn1ccc(OC[C@H]2C/C=C/[C@H](OC)[C@@H]3CC[C@H]3CN3C[C@@]4(CCCc5cc(Cl)ccc54)COc4ccc(cc43)C(=O)N=[S@@](=O)(NC(=O)COC3CCOCC3)C2)n1` [Example 46], for which the IC50 at MCL1/Bim worked out at 0.521 nM. Also, the EC50 in the test on SKBR3 cells (72 hours) was determined as 1600 nM.

With `COc1nn(C)cc1C(=O)N[S@]1(=O)=NC(=O)c2ccc3c(c2)N(C[C@@H]2CC[C@H]2C(=O)/C=C/C[C@H](C)C1)C[C@@]1(CCCc2cc(Cl)ccc21)CO3` [Example 47], the IC50 at MCL1/Bim came out at 0.167 nM. In addition, the EC50 with SKBR3 cells (72 hours) was 81.9 nM.

As to `COc1nn(C)cc1C(=O)N[S@@]1(=O)=NC(=O)c2ccc3c(c2)N(C[C@@H]2CC[C@H]2C(=O)/C=C/C[C@H](C)[C@H]1C)C[C@@]1(CCCc2cc(Cl)ccc21)CO3` [Example 48], at MCL1/Bim, the IC50 worked out at 0.693 nM. Besides, the EC50 in the test with SKBR3 cells (72 hours) is 173 nM.

Take `Cn1nccc1CCC(=O)NS1(=O)=NC(=O)c2ccc3c(c2)N(C[C@@H]2CC[C@H]2[C@@H](OCCN2CCOCC2)/C=C/CCC1)C[C@@]1(CCCc2cc(Cl)ccc21)CO3` (stereo partly shown) [Example 49]: the IC50 at MCL1/Bim was 0.194 nM. Also, the EC50 with SKBR3 cells (72 hours) was 525 nM.

Consider `C[C@H]1C/C=C/[C@H](OC(=O)c2cnn(C)c2)[C@@H]2CC[C@H]2CN2C[C@@]3(CCCc4cc(Cl)ccc43)COc3ccc(cc32)C(=O)N=[S@](=O)(NC(=O)c2cnn(C)c2)C1` [Example 51], for which, at MCL1/Bim, the IC50 is 0.222 nM. Further, the EC50 with SKBR3 cells (setting [1]) was 433 nM.

As for `C[C@H]1C/C=C/[C@H](OCCN2CCOCC2)[C@@H]2CC[C@H]2CN2C[C@@]3(CCCc4cc(Cl)ccc43)COc3ccc(cc32)C(=O)N=[S@](=O)(Nc2ncnc3nn(C)cc23)C1` [Example 52], the IC50 on MCL1/Bim came to 0.081 nM. In the test on SKBR3 cells (setting [1]), the EC50 was found to be 9.5 nM.

Regarding `COc1nn(C)cc1C(=O)N[S@@]1(=O)=NC(=O)c2ccc3c(c2)N(C[C@@H]2CC[C@H]2[C@@H](OCCCN2CCOCC2)/C=C/C[C@H](C)C1)C[C@@]1(CCCc2cc(Cl)ccc21)CO3` [Example 53], on MCL1/Bim, the half-inhibitory concentration (IC50) was 0.105 nM. The EC50 with SKBR3 cells (72 hours) turned out to be 21.7 nM.

As to `C=CCO[C@H]1/C=C/C[C@H](C)C[S@@](=O)(NC(=O)c2cn(C)nc2OC)=NC(=O)c2ccc3c(c2)N(C[C@@H]2CC[C@H]21)C[C@@]1(CCCc2cc(Cl)ccc21)CO3` [Example 54], the 50% inhibitory concentration (IC50) on MCL1/Bim was 0.092 nM. The EC50 in the test with SKBR3 cells (72 hours) was determined as 103 nM.

For the compound `C=CCO[C@@H]1/C=C/C[C@H](C)C[S@@](=O)(NC(=O)c2cn(C)nc2OC)=NC(=O)c2ccc3c(c2)N(C[C@@H]2CC[C@H]21)C[C@@]1(CCCc2cc(Cl)ccc21)CO3` [Example 55], on MCL1/Bim, the IC50 was found to be 0.332 nM. Besides, in the test with SKBR3 cells (72 hours), the EC50 is 426 nM.

As to `COc1nn(C)cc1C(=O)N[S@@]1(=O)=NC(=O)c2ccc3c(c2)N(C[C@@H]2CC[C@H]2[C@@H](OC(=O)CCC2CCOCC2)/C=C/C[C@H](C)C1)C[C@@]1(CCCc2cc(Cl)ccc21)CO3` [Example 56], the IC50 on MCL1/Bim worked out at 0.16 nM. The EC50 in the test with SKBR3 cells (setting [1]) came to 93.6 nM.

For `COc1nn(C)cc1C(=O)N[S@@]1(=O)=NC(=O)c2ccc3c(c2)N(C[C@@H]2CC[C@H]2[C@@H](OCCN2CC(N(C)C)C2)/C=C/C[C@H](C)C1)C[C@@]1(CCCc2cc(Cl)ccc21)CO3` [Example 58], at MCL1/Bim, the IC50 amounted to 0.098 nM. Moreover, the EC50 in the test on SKBR3 cells (72 hours) was determined as 38.3 nM.

As to `COc1nn(C)cc1C(=O)N[S@@]1(=O)=NC(=O)c2ccc3c(c2)N(C[C@@H]2CC[C@H]2[C@@H](OCCN2CCN(C4COC4)CC2)/C=C/C[C@H](C)C1)C[C@@]1(CCCc2cc(Cl)ccc21)CO3` [Example 60], the IC50 at MCL1/Bim was 0.07 nM. The EC50 in the test with SKBR3 cells (setting [1]) was 19.2 nM.

As to `COc1nn(C)cc1C(=O)N[S@@]1(=O)=NC(=O)c2ccc3c(c2)N(C[C@@H]2CC[C@H]2[C@@H](OCCN2CC(OC)C2)/C=C/C[C@H](C)C1)C[C@@]1(CCCc2cc(Cl)ccc21)CO3` [Example 61], the IC50 at MCL1/Bim is 0.136 nM. Further, the EC50 in the test on SKBR3 cells (setting [1]) worked out at 19.6 nM.

The record behind these values is patent US11667652B2, “MCL1 inhibitors” (Gilead Sciences, Inc., priority 2019, dated 2023).
